Laboratory results from patent EP1482955B1, “PROPHYLACTIC AND THERAPEUTIC TREATMENT OF […] OTHER DISEASES WITH IMMU[…]” (CORIXA CORPORATION, priority 2002, dated 2003).

Assays:
[1] = test system: L. monocytogenes 10403 serotype; test: Murine Listeria monocytogenes challenge model (induction of non-specific resistance); format: in vivo; settings: mice, 1 µg intravenously in 0.2% TEOA two days before intravenous challenge with ~10^5 L. monocytogenes; spleen CFUs two days after challenge
Experimental: This example provides experiments evaluating the induction of non-specific resistance in the murine Listeria monocytogenes challenge model performed using the compounds prepared in examples 1, 2 and 3. Mice (5 per group) were treated intravenously with the 1 µg of a cyclic AGP or MPL solublized in 0.2% triethanolamine (TEOA). Two days later the mice were challenged intravenously with a ~10^5 L. monocytogenes 10403 serotype (stock culture provided by Jory Baldridge, Washington State University, Pullman, WA.). Two days after the challenge the mice were sacrificed and the number of colony forming units (CFUs) in the spleens of individual mice were determined by plating 10-fold serial dilutions of splenic homogenates on tryptic soy agar plates. The degree of protection afforded by a given AGP or MPL was calculated by subtracting the average number of bacteria per spleen (log10 value) in the group of mice treated with a given compound, from the average number of bacteria per spleen (log10 value) in a control group that was "sham" treated with vehicle (0.2% TEOA) prior to challenge with L. monocytogenes.

[2] = test system: Influenza A/HK/68; test: Protection against lethal influenza challenge by prophylactic intranasal administration; format: in vivo; settings: BALB/c mice; for protection when compared with the vehicle control: 20 µg intranasally 48 hours prior to challenge (5 LD50), judged by survival, clinical symptoms and prevention of weight loss for 21 days; for survival rate: 20 µg intranasally 48 hours prior to lethal intranasal challenge (5 LD50), followed 21 days
Experimental: This example provides experiments evaluating protection against a lethal challenge with influenza in cyclic AGP-treated mice. BALB/c mice (10 mice per group) were treated intranasally with 20 µg of the compounds of examples 1, 2 and 3, or with MPL, 48 hours prior to an lethal intranasal challenge of Influenza A/HK/68 (5 LD50). Protection was judged by survival, observations of clinical symptoms (ruffled fur, hunched posture and labored breathing), and prevention of weight loss for 21 days following the challenge.

Row | Compound | protection (average number of bacteria per spleen, log10 value, vehicle control group minus treated group) [1] | protection when compared with the vehicle control [2] | survival rate [2]
1 | CCCCCCCCCCCC(=O)O[C@H](CCCCCCCCCCC)CC(=O)N[C@H]1[C@H](OC[C@@H]2CCCN2C(=O)C[C@@H](CCCCCCCCCCC)OC(=O)CCCCCCCCCCC)O[C@H](CO)[C@@H](OP(=O)(O)O)[C@@H]1OC(=O)C[C@@H](CCCCCCCCCCC)OC(=O)CCCCCCCCCCC.CCN(CC)CC [Example 2, N-[(R)-3-Dodecanoyloxytetradecanoyl]-(S)-2-pyrrolidinylmethyl 2-Deoxy-4-O-phosphono-2-[(R)-3-dodecanoyloxy-tetradecanoylamino]-3-O-[(R)-3-dodecanoyloxytetradecanoyl]-β-D-glucopyranoside Triethylammonium Salt] | 0.7 log 10 units | enhanced protection | 40%
2 | CCCCCCCCCCC[C@H](CC(=O)N[C@H]1[C@H](OC[C@@H]2CCCN2C(=O)C[C@@H](CCCCCCCCCCC)OC(=O)CCCCCCCCC)O[C@H](CO)[C@@H](OP(=O)(O)O)[C@@H]1OC(=O)C[C@@H](CCCCCCCCCCC)OC(=O)CCCCCCCCC)OC(=O)CCCCCCCCC.CCN(CC)CC [Example 3, N-[(R)-3-Decanoyloxytetradecanoyl]-(S)-2-pyrrolidinylmethyl 2-Deoxy-4-O-phosphono-2-[(R)-3-Decanoyloxytetradecanoylamino]-3-O-[(R)-3-Decanoyloxytetradecanoyl]-β-D-glucopyranoside Triethylammonium Salt] | ~ 0.9 log 10 units | enhanced protection | 60%
3 | N-[(R)-3-Tetradecanoyloxytetradecanoyl]-(S)-2-pyrrolidinylmethyl 2-Deoxy-4-O-phosphono-2-[(R)-3-tetradecanoyloxytetradecanoylamino]-3-O-[(R)-3-tetradecanoyloxytetradecanoyl]-β-D-glucopyranoside Triethylammonium Salt [Example 1] | 0.2 log 10 units |  | No mice
